Drawing on patent US8426406B2, “Glucocorticoid receptor agonist comprising 2,2,4-trimethyl-6-phenyl-1,2-dihydroquinoline derivatives having substituted oxy group” (Santen Pharmaceutical Co., Ltd., priority 2008, dated 2013), this text covers Emax for 25 molecules.

This assay relates to IL-6 production induced by lipopolysaccharide (LPS) in human corneal epithelial cells. The assay can be described thus: Evaluation test for GR agonist activity: inhibition of LPS-induced IL-6 production in human corneal epithelial cells (HCE-T). The class given is cell-based. The conditions noted are these: Corneal epithelial cell, 10 μL of 100 μM test compound solution per well, 4 hours incubation, efficacy relative to DEX. As to the method:
In order to evaluate a GR agonist activity of the present compound, the inhibitory effects on the IL-6 production induced by lipopolysaccharide (LPS) in human corneal epithelial cells. IL-6 levels in the conditioned medium were measured using the HTRF human IL-6 Kit (boehringer-Ingelheim, Cat No. 62IL6PEB), and the procedure was carried out according to the protocol attached to the kit. Hereinafter, the specific method will be described.
LPS solution: After LPS was dissolved in phosphate buffer solution (hereinafter referred to as PBS(−)), the resulting solution was diluted with 10% FBS-DMEM/F12 medium, whereby a 1 μg/mL LPS solution was prepared.
After a test compound was dissolved in dimethylsulfoxide (hereinafter referred to as DMSO), the resulting solution was diluted with 10% FBS-DMEM/F12 medium, whereby a 100 μM test compound solution was prepared. A 100 μM DEX solution was prepared by the same method, and the inhibitory ratio of IL-6 production of DEX was evaluated to use for calculating efficacy (% DEX).
Used cell: SV40-immortalized human corneal epithelial cells (HCE-T) (RIKEN)
1) HCE-T cells were harvested, and seeded at 2.0×10^4 cells/0.1 mL/well in a 96-well plate.
2) After incubation overnight, the medium was removed and a 80 μL of new 10% FBS-DMEM/Ham's F12 medium was added into each well.
3) A 10 μL of test compounds solution was added into each well.
4) A 10 μL of LPS solution was added into each well.
5) As a negative control, a 10 μL of 10% FBS-DMEM/Ham's F12 medium was added into each well instead of a test compound solution and a LPS solution.
6) As a positive control, a 10 μL of 10% FBS-DMEM/Ham's F12 medium containing 1% DMSO was added into each well instead of a test compound solution.
7) After 4 hours incubation, supernatants were collected and IL-6 levels in the supernatants were quantitated using the HTRF human IL-6 Kit.
8) The inhibition ratio of IL-6 production (%) was calculated according to the following equation.
The inhibition ratio of IL-6 production (%) was calculated according to the following equation. The inhibition ratio of IL-6 production(%)=100×[1−(IL-6 level in each group−mean value of IL-6 level in negative control)/(mean value of IL-6 level in positive control−mean value of IL-6 level in negative control)](%)
Furthermore, the inhibition ratio of IL-6 production (efficacy (% DEX)) was also calculated according to the following equation. Efficacy(% DEX)=100×{(mean value of IL-6 inhibition in compound-treated group)/(mean value of IL-6 inhibition in DEX-treated group)}(%) (Result and Discussion)
In general, Emax refers to the greatest response seen or fitted, relative to the assay's reference. In turn, `COc1cc(OC(=O)c2ccccc2Cl)ccc1-c1ccc2c(c1CNc1cc(F)ccc1C)C(C)=CC(C)(C)N2` [Compound 1-98, 6-[4-(2-Chlorobenzoyloxy)-2-methoxyphenyl]-5-(5-fluoro-2-methylphenylaminomethyl)-2,2,4-trimethyl-1,2-dihydroquinoline] showed a maximal response (Emax) of 78%. Molecule `COc1cc(OC(=O)c2occc2C)ccc1-c1ccc2c(c1COC(=O)c1ccc(C)s1)C(C)=CC(C)(C)N2` [Compound 1-171, 6-[2-Methoxy-4-(3-methylfuran-2-ylcarbonyloxy)phenyl]-5-(5-methylthiophen-2-ylcarbonyloxymethyl)-2,2,4-trimethyl-1,2-dihydroquinoline] yielded a maximal effect (Emax) of 87%. The result for `COc1cc(OC(=O)c2cscn2)ccc1-c1ccc2c(c1COc1cc(F)ccc1C)C(C)=CC(C)(C)N2` [Compound 1-40, 5-(5-Fluoro-2-methylphenoxymethyl)-6-[2-methoxy-4-(thiazol-4-ylcarbonyloxy)phenyl]-2,2,4-trimethyl-1,2-dihydroquinoline] reads 75%.

`COc1cc(OC(=O)Cc2ccccc2)ccc1-c1ccc2c(c1COc1cc(F)ccc1C)C(C)=CC(C)(C)N2` [Compound 1-15, 5-(5-Fluoro-2-methylphenoxymethyl)-6-(2-methoxy-4-phenylacetoxyphenyl)-2,2,4-trimethyl-1,2-dihydroquinoline] gave an Emax of 77%.

Consider `COC(=O)c1cccc(C(=O)Oc2ccc(-c3ccc4c(c3COc3cc(F)ccc3C)C(C)=CC(C)(C)N4)c(OC)c2)c1` [Compound 1-54, 5-(5-Fluoro-2-methylphenoxymethyl)-6-[2-methoxy-4-(3-methoxycarbonylbenzoyloxy)phenyl]-2,2,4-trimethyl-1,2-dihydroquinoline], for which the Emax was 75%. In turn, `COc1cc(OC(=O)c2ccccc2F)ccc1-c1ccc2c(c1COC(=O)c1ccc(C)s1)C(C)=CC(C)(C)N2` [Compound 1-144, 6-[4-(2-Fluorobenzoyloxy)-2-methoxyphenyl]-5-(5-methylthiophen-2-ylcarbonyloxymethyl)-2,2,4-trimethyl-1,2-dihydroquinoline] had an Emax of 94%. The value for `COc1cc(OC(=O)c2ccccc2)ccc1-c1ccc2c(c1COC(=O)c1ccc(C)s1)C(C)=CC(C)(C)N2` [Compound 1-142, 6-(4-Benzoyloxy-2-methoxyphenyl)-5-(5-methylthiophen-2-ylcarbonyloxymethyl)-2,2,4-trimethyl-1,2-dihydroquinoline] was 97%; that for `CCCCS(=O)(=O)Oc1ccc(-c2ccc3c(c2COc2cc(F)ccc2C)C(C)=CC(C)(C)N3)c(OC)c1` [Compound 4-6, 6-(4-Butylsulfonyloxy-2-methoxyphenyl)-5-(5-fluoro-2-methylphenoxymethyl)-2,2,4-trimethyl-1,2-dihydroquinoline] was 82%; that for `CCS(=O)(=O)Oc1ccc(-c2ccc3c(c2COc2cc([N+](=O)[O-])ccc2C)C(C)=CC(C)(C)N3)c(OC)c1` [Compound 4-11, 6-(4-Ethylsulfonyloxy-2-methoxyphenyl)-5-(2-methyl-5-nitrophenoxymethyl)-2,2,4-trimethyl-1,2-dihydroquinoline] was 75%. `COc1cc(OC(=O)c2cccnc2)ccc1-c1ccc2c(c1COc1cc(F)ccc1C)C(C)=CC(C)(C)N2` [Compound 1-8, 5-(5-Fluoro-2-methylphenoxymethyl)-6-[2-methoxy-4-(pyridin-3-ylcarbonyloxy)phenyl]-2,2,4-trimethyl-1,2-dihydroquinoline]: the maximal effect (Emax) is 94%.

Consider `COc1cc(OC(=O)c2ccccc2SC)ccc1-c1ccc2c(c1COc1cc(F)ccc1C)C(C)=CC(C)(C)N2` [Compound 1-38], for which the Emax was 75%. The result for `COc1cc(OC(=O)c2ccncc2)ccc1-c1ccc2c(c1CNc1cc(F)ccc1C)C(C)=CC(C)(C)N2` [Compound 1-119, 5-(5-Fluoro-2-methylphenylaminomethyl)-6-[2-methoxy-4-(pyridin-4-ylcarbonyloxy)phenyl]-2,2,4-trimethyl-1,2-dihydroquinoline] reads 75%; that for `COc1ccccc1NCc1c(-c2ccc(OC(=O)c3cccnc3OC)cc2OC)ccc2c1C(C)=CC(C)(C)N2` [Compound 1-117, 6-[2-Methoxy-4-(2-methoxypyridin-3-ylcarbonyloxy)phenyl]-5-(2-methoxyphenylaminomethyl)-2,2,4-trimethyl-1,2-dihydroquinoline], 95%; that for `COc1cc(OS(=O)(=O)C2CCCC2)ccc1-c1ccc2c(c1COC(=O)c1ccc(C)s1)C(C)=CC(C)(C)N2` [Compound 4-30, 6-(4-Cyclopentylsulfonyloxy-2-methoxyphenyl)-5-(5-methylthiophen-2-ylcarbonyloxymethyl)-2,2,4-trimethyl-1,2-dihydroquinoline], 93%. As for `COc1ccccc1NCc1c(-c2ccc(OC(=O)c3cccnc3C)cc2OC)ccc2c1C(C)=CC(C)(C)N2` [Compound 1-91, 6-[2-Methoxy-4-(2-methylpyridin-3-ylcarbonyloxy)phenyl]-5-(2-methoxyphenylaminomethyl)-2,2,4-trimethyl-1,2-dihydroquinoline], the Emax turned out to be 92%.

`COc1ccccc1NCc1c(-c2ccc(OC(=O)c3ccccc3SC)cc2OC)ccc2c1C(C)=CC(C)(C)N2` [Compound 1-111] displayed an Emax of 81%. Molecule `COc1cc(OC(=O)c2ccc(C)nc2)ccc1-c1ccc2c(c1COc1cc(F)ccc1C)C(C)=CC(C)(C)N2` [Compound 1-55, 5-(5-Fluoro-2-methylphenoxymethyl)-6-[2-methoxy-4-(6-methylpyridin-3-ylcarbonyloxy)phenyl]-2,2,4-trimethyl-1,2-dihydroquinoline] gave an Emax of 76%. As for `CCCS(=O)(=O)Oc1ccc(-c2ccc3c(c2COc2cc(F)ccc2C)C(C)=CC(C)(C)N3)c(OC)c1` [Compound 4-3, 5-(5-Fluoro-2-methylphenoxymethyl)-6-(2-methoxy-4-propylsulfonyloxyphenyl)-2,2,4-trimethyl-1,2-dihydroquinoline], the maximal response (Emax) is 81%. `COc1cc(OC(=O)N(C)C)ccc1-c1ccc2c(c1COC(=O)c1ccc(C)s1)C(C)=CC(C)(C)N2` [Compound 6-37, 6-(4-Dimethylaminocarbonyloxy-2-methoxyphenyl)-5-(5-methylthiophen-2-ylcarbonyloxymethyl)-2,2,4-trimethyl-1,2-dihydroquinoline] had an Emax of 85%. The result for `COc1cc(OC(=O)c2cscn2)ccc1-c1ccc2c(c1COC(=O)c1ccc(C)s1)C(C)=CC(C)(C)N2` [Compound 1-155, 6-[2-Methoxy-4-(thiazol-4-ylcarbonyloxy)phenyl]-5-(5-methylthiophen-2-ylcarbonyloxymethyl)-2,2,4-trimethyl-1,2-dihydroquinoline] reads 83%; that for `COc1ccccc1NCc1c(-c2ccc(OC(=O)c3ccc(F)cc3)cc2OC)ccc2c1C(C)=CC(C)(C)N2` [Compound 1-110, 6-[4-(4-Fluorobenzoyloxy)-2-methoxyphenyl]-5-(2-methoxyphenylaminomethyl)-2,2,4-trimethyl-1,2-dihydroquinoline], 83%. The result for `COc1ccccc1NCc1c(-c2ccc(OC(=O)c3ccoc3)cc2OC)ccc2c1C(C)=CC(C)(C)N2` [Compound 1-95, 6-[4-(Furan-3-ylcarbonyloxy)-2-methoxyphenyl]-5-(2-methoxyphenylaminomethyl)-2,2,4-trimethyl-1,2-dihydroquinoline] reads 87%; that for `COc1cc(OC(=O)N(C)C)ccc1-c1ccc2c(c1COc1cc([N+](=O)[O-])ccc1C)C(C)=CC(C)(C)N2` [Compound 6-33, 6-(4-Dimethylaminocarbonyloxy-2-methoxyphenyl)-5-(2-methyl-5-nitrophenoxymethyl)-2,2,4-trimethyl-1,2-dihydroquinoline], 78%. The value for `COc1cc(OC(=O)c2cccnc2OC)ccc1-c1ccc2c(c1CNc1cc(F)ccc1C)C(C)=CC(C)(C)N2` [Compound 1-125, 5-(5-Fluoro-2-methylphenylaminomethyl)-6-[2-methoxy-4-(2-methoxypyridin-3-ylcarbonyloxy)phenyl]-2,2,4-trimethyl-1,2-dihydroquinoline] was 81%; that for `COc1cc(OC(=O)c2ccoc2)ccc1-c1ccc2c(c1COC(=O)c1ccc(C)s1)C(C)=CC(C)(C)N2` [Compound 1-148, 6-[4-(Furan-3-ylcarbonyloxy)-2-methoxyphenyl]-5-(5-methylthiophen-2-ylcarbonyloxymethyl)-2,2,4-trimethyl-1,2-dihydroquinoline] was 86%.
